This passage reports IC50 results from patent US8129371B2, “Thienopyrimidine and pyrazolopyrimidine compounds and their use as mTOR kinase and PI3 kinase inhibitors” (Wyeth LLC, priority 2007, dated 2012).

Structures are written as SMILES. Like-named read-outs stand apart in the source and are kept apart here.

One test deals with T1, Human mTOR (FLAG-TOR) (Homo sapiens, UniProt P42345).
T1 construct: FLAG
The experiment in a line: Human mTOR kinase assay with purified enzyme, DELFIA format. It is filed as biochemical. The method in brief:
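DELFIA readout: Eu-anti-P(T389)-S6K antibody (40 ng/mL, 1 h) on captured His6-S6K from the stopped reaction. Kinase step used purified FLAG-tagged human mTOR with test compound in HEPES (pH 7.4)/MnCl2/DTT buffer, 2 h at room temperature (linear 1–6 h), terminated by EDTA/EGTA.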

Test [1] addresses T2, PI3K (Homo sapiens, UniProt P42336).
T2 construct: PI3 Kinase α IC50; other: PI3 Kinase α; other: PI3 Kinase α isoform, fluorescence polarization
The test is described as follows: Fluorescence polarization assay for PI3K. It is filed as biochemical. The following applies: read-out: PI3 Kinase α IC50. The method in brief:
(§1)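 Fluorescence-polarization competition readout: after 30–60 min of PIP2/ATP turnover in 1% DMSO, a stop mix with GST-GRP (70 nM) and red probe (10 nM) was added.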

In test [2] the target is T3, PI3K (Homo sapiens, UniProt P48736).
T3 construct: PI3 Kinase γ IC50; other: PI3 Kinase γ; other: PI3 Kinase γ isoform, fluorescence polarization
T3 sequence (P48736 whole entry, canonical isoform): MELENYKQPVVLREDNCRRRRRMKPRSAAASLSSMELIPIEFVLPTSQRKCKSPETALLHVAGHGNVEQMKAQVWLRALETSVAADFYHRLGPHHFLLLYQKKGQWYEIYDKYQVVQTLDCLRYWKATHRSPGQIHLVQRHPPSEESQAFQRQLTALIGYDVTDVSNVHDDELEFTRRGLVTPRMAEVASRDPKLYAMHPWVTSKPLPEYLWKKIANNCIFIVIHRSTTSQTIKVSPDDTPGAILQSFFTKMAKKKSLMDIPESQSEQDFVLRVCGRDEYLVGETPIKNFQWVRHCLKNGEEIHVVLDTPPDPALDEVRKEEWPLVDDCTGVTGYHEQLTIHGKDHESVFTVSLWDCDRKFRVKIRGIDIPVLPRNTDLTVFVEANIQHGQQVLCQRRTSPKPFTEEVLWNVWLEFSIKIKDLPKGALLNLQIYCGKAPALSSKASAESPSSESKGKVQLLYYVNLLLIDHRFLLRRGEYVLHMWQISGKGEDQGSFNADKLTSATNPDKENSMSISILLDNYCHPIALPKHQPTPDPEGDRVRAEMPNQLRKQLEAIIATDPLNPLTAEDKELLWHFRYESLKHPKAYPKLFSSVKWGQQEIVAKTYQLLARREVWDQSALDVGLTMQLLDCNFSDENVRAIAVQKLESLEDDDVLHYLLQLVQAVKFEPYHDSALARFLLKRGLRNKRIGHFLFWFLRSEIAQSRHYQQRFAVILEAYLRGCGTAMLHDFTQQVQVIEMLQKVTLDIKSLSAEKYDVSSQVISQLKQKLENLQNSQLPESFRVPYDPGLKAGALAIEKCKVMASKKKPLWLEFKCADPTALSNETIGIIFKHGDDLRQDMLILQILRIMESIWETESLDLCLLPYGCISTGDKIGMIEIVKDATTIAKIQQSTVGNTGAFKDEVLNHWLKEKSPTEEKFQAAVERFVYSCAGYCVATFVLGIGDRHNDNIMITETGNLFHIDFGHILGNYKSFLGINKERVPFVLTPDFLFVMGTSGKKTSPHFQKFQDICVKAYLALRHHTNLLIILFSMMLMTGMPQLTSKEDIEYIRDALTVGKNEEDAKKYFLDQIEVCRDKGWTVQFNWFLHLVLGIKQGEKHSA
The test is described as follows: Fluorescence polarization assay for PI3K. The format is biochemical. The following applies: read-out: PI3 Kinase γ IC50. The method in brief: as §1

The subject of a further test is prostate line LNCap. The test is described as follows: In vitro cell culture growth assay (MTS), LNCap. The format is cell-based. The following applies: Homo sapiens, LNCaP, 72 h, LNCap cells, three days after drug treatment. The procedure, abridged: (§2)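 Plate cells; add inhibitors on day 1; after 3 days' treatment, add MTS; read A490; express as percent growth of vehicle-treated control.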

The subject of the next test is breast line MDA468. The test is described as follows: In vitro cell culture growth assay (MTS), MDA468. The format is cell-based. The following applies: Homo sapiens, 72 h, MDA468 cells, three days after drug treatment. The procedure, abridged: as §2
Where [3] appears, read: purified human mTOR enzyme, DELFIA format.
Where [4] appears, read: PI3 Kinase α isoform, fluorescence polarization.
The mark [5] stands for this setting: PI3 Kinase γ isoform, fluorescence polarization.

T2 sequence (P42336 whole entry, canonical isoform): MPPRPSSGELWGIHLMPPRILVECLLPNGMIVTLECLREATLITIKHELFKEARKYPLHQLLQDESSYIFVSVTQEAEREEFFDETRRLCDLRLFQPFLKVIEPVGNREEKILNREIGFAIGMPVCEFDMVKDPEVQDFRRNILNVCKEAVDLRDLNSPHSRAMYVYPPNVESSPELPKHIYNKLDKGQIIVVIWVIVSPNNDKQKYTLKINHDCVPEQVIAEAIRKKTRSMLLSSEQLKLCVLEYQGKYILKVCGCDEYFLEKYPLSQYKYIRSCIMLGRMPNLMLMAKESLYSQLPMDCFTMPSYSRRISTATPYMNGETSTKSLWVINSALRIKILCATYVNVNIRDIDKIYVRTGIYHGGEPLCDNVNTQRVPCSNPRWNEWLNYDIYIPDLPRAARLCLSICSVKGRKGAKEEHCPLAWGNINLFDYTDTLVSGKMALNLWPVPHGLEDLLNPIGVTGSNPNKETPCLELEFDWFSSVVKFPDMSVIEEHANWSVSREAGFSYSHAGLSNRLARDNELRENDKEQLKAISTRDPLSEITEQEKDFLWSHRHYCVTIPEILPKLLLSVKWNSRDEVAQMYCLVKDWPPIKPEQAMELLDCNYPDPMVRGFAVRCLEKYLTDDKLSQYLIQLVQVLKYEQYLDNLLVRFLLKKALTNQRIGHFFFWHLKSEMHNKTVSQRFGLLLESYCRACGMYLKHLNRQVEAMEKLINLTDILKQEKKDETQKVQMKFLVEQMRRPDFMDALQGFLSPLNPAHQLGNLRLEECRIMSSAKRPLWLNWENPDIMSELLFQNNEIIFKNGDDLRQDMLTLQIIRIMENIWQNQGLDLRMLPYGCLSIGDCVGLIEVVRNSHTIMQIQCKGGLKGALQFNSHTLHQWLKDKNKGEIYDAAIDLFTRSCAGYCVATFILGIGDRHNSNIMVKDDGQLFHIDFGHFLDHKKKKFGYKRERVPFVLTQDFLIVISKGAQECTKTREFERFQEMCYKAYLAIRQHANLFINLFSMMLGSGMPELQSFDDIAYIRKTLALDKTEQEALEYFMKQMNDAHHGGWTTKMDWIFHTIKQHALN

Take `CCn1ncc2c(N3CC4CCC(C3)O4)nc(-c3ccc(NC(=O)Nc4ccc(CCO)cc4)cc3)nc21` [Example 183, 1-{4-[1-ethyl-4-(8-oxa-3-azabicyclo[3.2.1]oct-3-yl)-1H-pyrazolo[3,4-d]pyrimidin-6-yl]phenyl}-3-[4-(2-hydroxyethyl)phenyl]urea]: the IC50 at Human mTOR (FLAG-TOR) was 0.12 nM; at PI3K [1] (PI3 Kinase α), 68 nM; on PI3K [2] (PI3 Kinase γ), 1500 nM; in the test with prostate line LNCap it was under 1 nM; in the test with breast line MDA468, under 1 nM.

Turning to `COC1CCC(n2ncc3c(N4CC5CCC(C4)O5)nc(-c4ccc(NC(=O)Nc5ccc(CO)cc5)cc4)nc32)CC1` (stereo not drawn) [Example 308, 1-[4-(hydroxymethyl)phenyl]-3-{4-[1-(4-methoxycyclohexyl)-4-(8-oxa-3-azabicyclo[3.2.1]oct-3-yl)-1H-pyrazolo[3,4-d]pyrimidin-6-yl]phenyl}urea], the IC50 against Human mTOR (FLAG-TOR) (setting [3]) was 0.08 nM; at PI3K [1] (setting [4]) it was 80 nM; on PI3K [2] (setting [5]), 2720 nM; in the test with prostate line LNCap, under 1 nM; with breast line MDA468, under 1 nM.

In the case of `O=C(Nc1ccc(CCO)cc1)Nc1ccc(-c2nc(N3CC4CCC(C3)O4)c3cnn(CC(F)(F)F)c3n2)cc1` [Example 260, 1-[4-(2-hydroxyethyl)phenyl]-3-{4-[4-(8-oxa-3-azabicyclo[3.2.1]oct-3-yl)-1-(2,2,2-trifluoroethyl)-1H-pyrazolo[3,4-d]pyrimidin-6-yl]phenyl}urea], the IC50 against Human mTOR (FLAG-TOR) was 0.111 nM; on PI3K [1] (PI3 Kinase α) it was 98 nM; on PI3K [2] (PI3 Kinase γ) it was 440 nM; in the test on prostate line LNCap, under 1 nM; with breast line MDA468 it was under 1 nM.

Consider `COCC(COC)n1ncc2c(N3CC4CCC(C3)O4)nc(-c3ccc(NC(=O)Nc4ccccc4)cc3)nc21` [Example 324, 1-(4-{1-[2-methoxy-1-(methoxymethyl)ethyl]-4-(8-oxa-3-azabicyclo[3.2.1]oct-3-yl)-1H-pyrazolo[3,4-d]pyrimidin-6-yl}phenyl)-3-phenylurea], for which the IC50 on Human mTOR (FLAG-TOR) (setting [3]) came to 3.4 nM; on PI3K [1] (setting [4]) it was 382 nM; at PI3K [2] (setting [5]), 5200 nM; with prostate line LNCap, 8 nM; in the test with breast line MDA468 it was 58 nM.

`CCn1ncc2c(N3CC4CCC(C3)O4)nc(-c3ccc(NC(=O)NCCNC)cc3)nc21` [Example 174, 1-{4-[1-ethyl-4-(8-oxa-3-azabicyclo[3.2.1]oct-3-yl)-1H-pyrazolo[3,4-d]pyrimidin-6-yl]phenyl}-3-[2-(methylamino)ethyl]urea]: the IC50 came out at 4.7 nM on Human mTOR (FLAG-TOR); 232 nM at PI3K [1] (PI3 Kinase α); 4980 nM at PI3K [2] (PI3 Kinase γ); 190 nM in the test on prostate line LNCap; 700 nM with breast line MDA468.

For the molecule `Nc1ccc(-c2nc(N3CC4CCC(C3)O4)c3cnn(CCO)c3n2)cc1` [Example 207, 2-[6-(4-aminophenyl)-4-(8-oxa-3-azabicyclo[3.2.1]oct-3-yl)-1H-pyrazolo[3,4-d]pyrimidin-1-yl]ethanol], the IC50 on Human mTOR (FLAG-TOR) was 145 nM; at PI3K [1] (PI3 Kinase α), 3590 nM; on PI3K [2] (PI3 Kinase γ), over 10000 nM; with prostate line LNCap, 14000 nM; in the test on breast line MDA468, 38000 nM.

Take `O=C(Nc1ccc(-c2nc(N3CC4CCC(C3)O4)c3cnn(C4CCC5(CC4)OCCO5)c3n2)cc1)OCCO` [Example 121, 2-hydroxyethyl {4-[1-(1,4-dioxaspiro[4.5]dec-8-yl)-4-(8-oxa-3-azabicyclo[3.2.1]oct-3-yl)-1H-pyrazolo[3,4-d]pyrimidin-6-yl]phenyl}carbamate]: the IC50 was 0.5 nM on Human mTOR (FLAG-TOR); 7650 nM on PI3K [1] (PI3 Kinase α); over 10000 nM on PI3K [2] (PI3 Kinase γ); 2 nM in the test with prostate line LNCap; 63 nM with breast line MDA468.

Turning to `O=C(Nc1ccc(-c2nc(N3C[C@@H]4C[C@H]3CO4)c3cnn(CC(F)(F)F)c3n2)cc1)Nc1cccnc1` [Example 293, 1-(4-{4-[(1S,4S)-2-oxa-5-azabicyclo[2.2.1]hept-5-yl]-1-(2,2,2-trifluoroethyl)-1H-pyrazolo[3,4-d]pyrimidin-6-yl}phenyl)-3-pyridin-3-ylurea], the IC50 against Human mTOR (FLAG-TOR) is 1.25 nM; at PI3K [1] (PI3 Kinase α), 602 nM; on PI3K [2] (PI3 Kinase γ) it was over 10000 nM; in the test on prostate line LNCap it was 17 nM; in the test with breast line MDA468, 50 nM.

Turning to `O=C(Nc1ccc(CO)cc1)Nc1ccc(-c2nc(N3CC4CCC(C3)O4)c3cnn(CCF)c3n2)cc1` [Example 250, 1-{4-[1-(2-fluoroethyl)-4-(8-oxa-3-azabicyclo[3.2.1]oct-3-yl)-1H-pyrazolo[3,4-d]pyrimidin-6-yl]phenyl}-3-[4-(hydroxymethyl)phenyl]urea], the IC50 at Human mTOR (FLAG-TOR) was 0.086 nM; at PI3K [1] (PI3 Kinase α), 34 nM; at PI3K [2] (PI3 Kinase γ), 952 nM; in the test with prostate line LNCap, under 1 nM; in the test on breast line MDA468, 4 nM.

On to `O=C(Nc1ccc(-c2nc(N3CC4CCC(C3)O4)c3cnn(C4CCC5(CC4)OCCO5)c3n2)cc1)OCCF` [Example 130, 2-fluoroethyl {4-[1-(1,4-dioxaspiro[4.5]dec-8-yl)-4-(8-oxa-3-azabicyclo[3.2.1]oct-3-yl)-1H-pyrazolo[3,4-d]pyrimidin-6-yl]phenyl}carbamate], for which the IC50 against Human mTOR (FLAG-TOR) is 1.5 nM; at PI3K [1] (PI3 Kinase α), over 10000 nM; on PI3K [2] (PI3 Kinase γ), over 10000 nM; in the test with prostate line LNCap it was 45 nM; with breast line MDA468 it was 800 nM.

For the molecule `COC(=O)Nc1ccc(-c2nc(N3CC4CCC(C3)O4)c3cnn(C(C)C)c3n2)cc1` [Example 138, methyl {4-[1-isopropyl-4-(8-oxa-3-azabicyclo[3.2.1]oct-3-yl)-1H-pyrazolo[3,4-d]pyrimidin-6-yl]phenyl}carbamate], the concentration for half-maximal inhibition (IC50) at Human mTOR (FLAG-TOR) turned out to be 1.27 nM; on PI3K [1] (PI3 Kinase α), 1040 nM; on PI3K [2] (PI3 Kinase γ), 3780 nM; in the test with prostate line LNCap, 80 nM; in the test with breast line MDA468, 510 nM.

For the molecule `CN(C)CCNC(=O)Nc1ccc(-c2nc(N3CC4CCC(C3)O4)c3cnn(C4CCC5(CC4)OCCO5)c3n2)cc1` [Example 133, 1-[2-(dimethylamino)ethyl]-3-{4-[1-(1,4-dioxaspiro[4.5]dec-8-yl)-4-(8-oxa-3-azabicyclo[3.2.1]oct-3-yl)-1H-pyrazolo[3,4-d]pyrimidin-6-yl]phenyl}urea], the IC50 worked out at 18.5 nM against Human mTOR (FLAG-TOR); 905 nM on PI3K [1] (PI3 Kinase α); 7640 nM on PI3K [2] (PI3 Kinase γ); 90 nM in the test with prostate line LNCap; 700 nM in the test with breast line MDA468.

Turning to `CN1CCN(c2ccc(NC(=O)Nc3ccc(-c4nc(N5CC6CCC(C5)O6)c5cnn(C6CCC(=O)CC6)c5n4)cc3)cc2)CC1` [Example 400, 1-[4-(4-methylpiperazin-1-yl)phenyl]-3-{4-[4-(8-oxa-3-azabicyclo[3.2.1]oct-3-yl)-1-(4-oxocyclohexyl)-1H-pyrazolo[3,4-d]pyrimidin-6-yl]phenyl}urea], the IC50 at Human mTOR (FLAG-TOR) (setting [3]) is 0.335 nM; at PI3K [1] (setting [4]), 165 nM; at PI3K [2] (setting [5]), 1990 nM; in the test with prostate line LNCap, under 1 nM; in the test on breast line MDA468, under 1 nM.

On to `O=C(Nc1ccc(-c2nc(N3CC4CCC(C3)O4)c3cnn(CC(F)(F)F)c3n2)cc1)NC1CC1` [Example 395, 1-cyclopropyl-3-{4-[4-(8-oxa-3-azabicyclo[3.2.1]oct-3-yl)-1-(2,2,2-trifluoroethyl)-1H-pyrazolo[3,4-d]pyrimidin-6-yl]phenyl}urea], for which the IC50 against Human mTOR (FLAG-TOR) (setting [3]) is 0.48 nM; on PI3K [1] (setting [4]), 1460 nM; on PI3K [2] (setting [5]) it was 8000 nM; in the test on prostate line LNCap, 4 nM; in the test with breast line MDA468, 60 nM.

For the molecule `CCn1ncc2c(N3CC4CCC(C3)O4)nc(-c3ccc(NC(=O)Nc4ccc(N5CCOCC5)cc4)cc3)nc21` [Example 181, 1-{4-[1-ethyl-4-(8-oxa-3-azabicyclo[3.2.1]oct-3-yl)-1H-pyrazolo[3,4-d]pyrimidin-6-yl]phenyl}-3-(4-morpholin-4-ylphenyl)urea], the IC50 at Human mTOR (FLAG-TOR) was 0.18 nM; on PI3K [1] (PI3 Kinase α), 175 nM; on PI3K [2] (PI3 Kinase γ), 3670 nM; with prostate line LNCap, under 1 nM; with breast line MDA468 it was under 1 nM.

Turning to `CCn1nc(N2CCN(C)CC2)c2c(N3CC4CCC(C3)O4)nc(-c3ccc(NC(=O)NC)cc3)nc21` [Example 348, 1-{4-[1-ethyl-3-(4-methylpiperazin-1-yl)-4-(8-oxa-3-azabicyclo[3.2.1]oct-3-yl)-1H-pyrazolo[3,4-d]pyrimidin-6-yl]phenyl}-3-methylurea], the IC50 against Human mTOR (FLAG-TOR) (setting [3]) came to 7.5 nM; on PI3K [1] (setting [4]), 1010 nM; on PI3K [2] (setting [5]) it was 8590 nM; in the test with prostate line LNCap it was 280 nM; in the test on breast line MDA468, 1000 nM.

On to `Cn1ncc2c(N3CC4CCC(C3)O4)nc(-c3ccc(NC(=O)Nc4ccccc4)cc3)nc21` [Example 55, 1-{4-[1-methyl-4-(8-oxa-3-azabicyclo[3.2.1]oct-3-yl)-1H-pyrazolo[3,4-d]pyrimidin-6-yl]phenyl}-3-phenylurea], for which the IC50 came to 0.66 nM on Human mTOR (FLAG-TOR); 74 nM at PI3K [1] (PI3 Kinase α); 648 nM on PI3K [2] (PI3 Kinase γ); 0.8 nM in the test on prostate line LNCap; 32 nM in the test on breast line MDA468.

Turning to `CCn1ncc2c(N3CC4CCC(C3)O4)nc(-c3ccc(NC(=O)NCCO)cc3)nc21` [Example 44, 1-{4-[1-ethyl-4-(8-oxa-3-azabicyclo[3.2.1]oct-3-yl)-1H-pyrazolo[3,4-d]pyrimidin-6-yl]phenyl}-3-(2-hydroxyethyl)urea], the half-maximal inhibitory concentration (IC50) against Human mTOR (FLAG-TOR) came out at 0.34 nM; on PI3K [1] (PI3 Kinase α), 416 nM; on PI3K [2] (PI3 Kinase γ), 12000 nM; in the test on prostate line LNCap it was 220 nM; in the test with breast line MDA468 it was 370 nM.
